The results in this text go back to publication PMC10375895, “Repurposed Fenoprofen Targeting SaeR Attenuates Staphylococcus aureus Virulence in Implant-Associated Infections” (ACS Central Science, 2023).

The structures appear in SMILES notation.

This assay addresses SaeR (response regulator) (Staphylococcus aureus, UniProt Q2G2G2). The assay can be described thus: SPR titration with purified SaeR ([…]); EMSA shows loss of hla promoter DNA binding. A general note: In EMSA bound probe runs differently from free probe, usually more slowly.

Sequence of SaeR (response regulator) (Q2G2G2 whole entry): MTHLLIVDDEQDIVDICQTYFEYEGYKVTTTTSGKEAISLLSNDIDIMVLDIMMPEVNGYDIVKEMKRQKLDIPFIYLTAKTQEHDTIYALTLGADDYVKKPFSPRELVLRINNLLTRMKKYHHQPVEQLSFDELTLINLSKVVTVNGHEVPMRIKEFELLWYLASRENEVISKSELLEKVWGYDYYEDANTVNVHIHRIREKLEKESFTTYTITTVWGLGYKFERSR

With `CC(C(=O)O)c1cccc(Oc2ccccc2)c1` (stereo not shown) [fenoprofen], the affinity, expressed as Kd, was 16.5 µM. That is a double-digit micromolar value.
